From PMC11695965 (Nature Communications, 2025)
Like-named read-outs stand apart in the source and are kept apart here.

Legend:
[1] = target: T1, CkPTA (phosphotransacetylase) (Clostridium kluyveri, UniProt A5N801); test: acetyl-CoA formation; format: biochemical
T1 sequence (A5N801 1-333): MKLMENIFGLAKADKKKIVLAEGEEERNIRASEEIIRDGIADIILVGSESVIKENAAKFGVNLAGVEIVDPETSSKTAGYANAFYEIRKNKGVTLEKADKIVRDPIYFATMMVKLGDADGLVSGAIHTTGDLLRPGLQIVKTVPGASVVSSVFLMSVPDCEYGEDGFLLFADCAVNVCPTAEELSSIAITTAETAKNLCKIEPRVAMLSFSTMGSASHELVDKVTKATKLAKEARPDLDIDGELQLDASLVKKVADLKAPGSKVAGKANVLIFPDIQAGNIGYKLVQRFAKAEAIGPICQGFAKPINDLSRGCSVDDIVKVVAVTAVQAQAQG

[2] = target: EcDERA (deoxyribose-5-phosphate aldolase); HSA = its T19S/G171A/V206I mutant (Escherichia coli, UniProt P0A6L0)
Sequence of EcDERA (deoxyribose-5-phosphate aldolase); HSA = its T19S/G171A/V206I mutant (P0A6L0 whole entry T19S/G171A/V206I): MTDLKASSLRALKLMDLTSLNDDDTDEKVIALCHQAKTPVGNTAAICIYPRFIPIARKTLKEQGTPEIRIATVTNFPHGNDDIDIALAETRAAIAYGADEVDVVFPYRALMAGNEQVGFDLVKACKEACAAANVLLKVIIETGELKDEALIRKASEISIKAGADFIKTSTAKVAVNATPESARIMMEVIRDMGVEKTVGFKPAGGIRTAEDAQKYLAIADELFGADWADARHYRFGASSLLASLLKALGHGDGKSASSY

| SMILES | acetyl-CoA formation [1] | also measured |
| --- | --- | --- |
| CC(=O)OP(=O)(O)O [acetyl phosphate] | CkPTA then converted acetyl phosphate into acetyl-CoA as the output product | – |
| CC(=O)SCCNC(=O)CCNC(=O)[C@H](O)C(C)(C)COP(=O)(O)OP(=O)(O)OC[C@H]1O[C@@H](n2cnc3c(N)ncnc32)[C@H](O)[C@@H]1OP(=O)(O)O [acetyl-CoA] | CkPTA then converted acetyl phosphate into acetyl-CoA as the output product | – |
| O=C[C@H](O)[C@H](O)COP(=O)(O)O [erythrose 4-phosphate] | – | product formation (H6P) ([2]; with glycolaldehyde): enzyme for the condensation of glycolaldehyde and E4P to H6P |
| O=CCO [glycolaldehyde] | – | product formation (H6P) ([2]; with erythrose 4-phosphate): deoxyribose-5-phosphate aldolase (EcDERA) showing the highest activity |
